From US20150284347A1, “NEW BENZENE SULFONAMIDE THIAZOLE COMPOUNDS” (INSERM (INSTITUT NATIONAL DE LA SANTÉ ET DE LA RECHERCHE …, priority 2012, published 2015)

Columns and labels:
breast cells MCF7 = assay: Trypan blue cell viability, MCF7; assay type: cell-based; details: 10 μM, MCF7, trypan blue exclusion, FIG. 1
Procedure: Cell viability was assessed by measuring the number of cells alive in samples of two different kind of prostate cells, respectively noted LNCAP and PC3, of breast cells noted MCF7, of colon cells noted HT29, of metastatic melanoma cell lines A375 and of melanoma cells from patients noted GIC. The measure of cell viability as performed by cell counting using the trypan blue exclusion method. Results were expressed as the percentage of cells alive relatively to the number of living cells in the presence of DMSO, which corresponds to the negative control associated to the 100% value. Cells were seeded in 6-well plates (60000 cells/well), depleted and incubated with compounds for the times indicated. Then cells were detached in the presence of 2000 of […] (Thermo) and 2 ml of RPMI 1640 Glutamax (Gibco) was added to the cell solution. 100 of this solution was stained for 1 minute with 100 of 0.4% trypan blue before counting with a Malassez chamber. The effect of compound on cell viability was studied on different types of cells. […] Cancer cells from prostate, breast, colon and melanoma A375 came from cell lines cultures. […] Results are expressed as percentage of cells alive relatively to the number of living cells in the presence of DMSO, which corresponds to the negative control associated to the 100% value. […]

[1] = system: melanoma cells resistant to dabrafenib; assay: Trypan blue cell viability, melanoma cells resistant to dabrafenib; assay type: cell-based, human; details: patient melanoma cells resistant to dabrafenib, FIG. 5
Procedure: The measure of cell viability was performed in the same way as for FIG. 1. Results are expressed as percentage of cells alive relatively to the number of living cells in the presence of DMSO, which is a negative control
Cells were seeded in 6-well plates (60000 cells/well), depleted and incubated with compounds for the times indicated. Then cells were detached in the presence of 2000 of HyQTase (Thermo) and 2 ml of RPMI 1640 Glutamax (Gibco) was added to the cell solution. 100 of this solution was stained for 1 minute with 100 of 0.4% trypan blue before counting with a Malassez chamber.
Melanoma cells resistant to dabrafenib wee prepared from patients treated and presented a resistance to dabrafenib. dabrafenib, [HA15], [SR47] and [SR50] were tested on these resistant cells, in order to determine their activity on cell viability of resistant melanoma cells, as illustrated in FIG. 5.

normal human fibroblasts = assay: Trypan blue cell viability, normal fibroblasts; assay type: cell-based; details: 10 μM, FIG. 2
Procedure: Primary cell cultures of human normal melanocytes were prepared from human foreskin. In order to determine the effect of compound HA15 on cell viability of melanocytes and fibroblasts, 10 μM of ciglitazone or 10 μM of HA15 were added to the cell samples. The measure of cell viability was performed in the same way as for FIG. 1. Results are expressed as the percentage of living cells relatively to the number of living cells in the presence of DMSO, as for FIG. 1. Normal human fibroblasts prepared from foreskins of newborns were grown under 5% CO2 at 37° C. in DMEM medium supplemented with 10% FCS and penicillin/streptomycin (100 U/ml/[…]). Cells were seeded in 6-well plates (60000 cells/well), depleted and incubated with compounds for the times indicated. Then cells were detached in the presence of 2000 of […] (Thermo) and 2 ml of RPMI 1640 Glutamax (Gibco) was added to the cell solution. 100 of this solution was stained for 1 minute with 100 of 0.4% trypan blue before counting with a Malassez chamber. The effect of compound HA15 on cell viability of melanocytes and fibroblasts was studied, as illustrated by FIG. 2. Primary cell cultures of human normal melanocytes were prepared from human foreskin. In order to determine the effect of compound HA15 on cell viability of melanocytes and fibroblasts, 10 μM of ciglitazone or 10 μM of HA15 were added to the cell samples. […]

A375 melanoma cells = assay: A375 melanoma xenograft tumor development in nude mice; assay type: in vivo; details: 0.7 mg/mouse/day over 24 days, athymic nude mice
Procedure: To assess a potential antineoplastic effect of (HA15) and (SR50) in vivo, A375 melanoma cells (2.5×10^6) were injected subcutaneously in 6-week-old female athymic nude mice and treated 5 days later by injection of vehicle (labrafil) or different compounds such as PLX4032, (HA15) and (SR50) (0.7 mg/mouse/day) over a period of 24 days. Inhibitory effect is expressed as the tumor volume (mm^3) on day 8, 11, 15, 18, 22 and 24.
Athymic BALB/C nu/nu mice (Harlan) were used. The animals were 6 weeks old and weighed between 20 and 25 g. The mice were housed in the animal's C3M in a 12 h/12 h cycle. The animals received water and food ad libitum. Mice were first acclimated for one week and then injected with A375 cells (2.5 million cells in 200 μl of PBS) subcutaneously into the right and left sides. Treatment was started eight days after injection of cancer cells (when tumors were visible). The various compounds were diluted in a mixture of Labrafil (90%) (Gattefosse), Tween 80 (1%) and N,N-Dimethylacetamide (9%). Five groups of six mice treated every day intraperitoneally with 0.7 mg/day of PLX4032, SR44 (HA15), SR47 (HA32), SR50 (JG25) or with the mixture of Labrafil in control were defined. Three times a week the tumor size was measured using a caliper. […]

[2] = system: metastatic melanoma cell line A375; assay: Trypan blue cell viability, A375; assay type: cell-based; details: 10 μM, A375, trypan blue exclusion, FIG. 1

## CC(=O)Nc1nc(-c2cccc(NS(=O)(=O)c3cccc4c(N(C)C)cccc34)c2)cs1 [HA15, N-(4-(3-(5-(dimethylamino)naphthalene-1-sulfonamido)phenyl)thiazol-2-yl)acetamide]
Breast cells MCF7
  cell viability (cells alive relative to DMSO): viability greatly reduced
[1]
  cell viability of resistant melanoma cells: inhibit cell viability of resistant melanoma cells
Normal human fibroblasts
  cell viability of normal fibroblasts: not affected
A375 melanoma cells
  ability of cells to develop visible tumors: markedly attenuated
[2]
  cell viability (cells alive relative to DMSO): viability greatly reduced
